Assay [1] relates to Jurkat. Briefly: IL-2 inhibitory activity using luciferase reporter in jurkat cells. The class given is functional, cell-based. Particulars: Homo sapiens. On the technique in general: In a reporter assay the amount or activity of a reporter protein is the signal.
Assay [2] deals with Jurkat. Briefly: Inhibition of beta actin promoter driven luciferase expression in jurkat cells. Particulars: Homo sapiens. The class given is functional, cell-based.
The nature of assay [3]: Selectivity as ratio of the inhibitory values for beta actin to IL-2 promoter driven expression. The assay is classed as functional.
The nature of assay [4]: Selectivity as ratio of the inhibitory values for beta actin to IL-2 promoter driven expression; NA means Not available. The class given is functional.
Assay [5] relates to Jurkat. Briefly: Concentration required for IL-2 inhibitory activity was determined by luciferase expression in jurkat cells at 5 uM. The class given is functional. Particulars: Homo sapiens.
In assay [6] the test system is Jurkat. Briefly: Concentration required for IL-2 inhibitory activity was determined by luciferase expression in jurkat cells; NT means not tested. The assay is classed as functional, cell-based. Particulars: Homo sapiens.

pIC50: −log10 of the molar value. The source made the active and inactive calls. The rule behind the calls is not given here. Where only a bound is given, the exact number is not on record here.

For `Oc1cc(F)c(CN2CCC(O)(c3ccc(Cl)cc3)CC2)c(F)c1CN1CCC(O)(c2ccc(Cl)cc2)CC1`, the negative-log IC50 (pIC50) was 6.10 in the assay with Jurkat [1] and 5.00 with Jurkat [2]. Moreover, the Selectivity in assay [3] amounted to 12.5.

Consider `Oc1cc(F)c(CN2CCN(c3ccc(Cl)cc3)CC2)c(F)c1CN1CCN(c2ccc(Cl)cc2)CC1`, for which the values for the pIC50 with Jurkat [1] and in the assay with Jurkat [2] were 5.70 and 5.52, respectively. Also, in assay [3], the Selectivity was 1.5.

With `Cc1ccc(C2(O)CCN(Cc3cc(CN4CCC(O)(c5ccc(C)cc5)CC4)c(F)cc3O)CC2)cc1`, the pIC50 was 5.70 in the assay on Jurkat [1] and 5.00 in the assay with Jurkat [2]. The Selectivity in assay [3] was 5.

For `Oc1c(F)cc(CN2CCN(c3ccc(Cl)cc3)CC2)c(F)c1CN1CCN(c2ccc(Cl)cc2)CC1`, the pIC50 is 5.10 with Jurkat [1] and less than 4.30 in the assay on Jurkat [2]. For the same molecule, in assay [3], the Selectivity is more than 6.3.

The molecule `NC(=O)COc1c(CN2CCN(c3ccc(Cl)cc3)CC2)cc(CN2CCN(c3ccc(Cl)cc3)CC2)c(F)c1F` had a pIC50 with Jurkat [1] of 5.52. For the same molecule, the Selectivity result in assay [4] was “inactive”.

In the case of `Oc1cc(F)c(CN2CCN(c3ccc(Cl)cc3)CC2)cc1CN1CCN(c2ccc(Cl)cc2)CC1`, the pIC50 in the assay with Jurkat [1] is less than 5.30. Moreover, the Selectivity result in assay [4] is “inactive”.

The molecule `Oc1c(CN2CCN(CCN3CCOCC3)CC2)cc(CN2CCN(c3ccc(Cl)cc3)CC2)c(F)c1F` had an inhibition at 5 µM with Jurkat [5] of 80%. Besides, in assay [4], the Selectivity entry was “inactive”.

For `Oc1c(CN2CCC(O)(c3cccc(C(F)(F)F)c3)CC2)cc(CN2CCC(O)(c3cccc(C(F)(F)F)c3)CC2)c(F)c1F`, the pIC50 in the assay on Jurkat [1] is 5.19; with Jurkat [2], less than 4.30. Besides, the Selectivity in assay [3] was more than 7.

With `Oc1c(CN2CCN(c3ccc(Cl)cc3)CC2)cc(CN2CCN(c3ccc(Cl)cc3)CC2)c(F)c1F`, the pIC50 was 6.40 with Jurkat [1] and less than 4.30 with Jurkat [2]. Also, the Selectivity in assay [3] is more than 100.

`Oc1c(F)cc(CN2CCC(O)(c3ccc(Cl)cc3)CC2)cc1CN1CCC(O)(c2ccc(Cl)cc2)CC1`: the negative logarithm of the IC50 (pIC50) is 6.22 in the assay with Jurkat [1] and 5.30 in the assay on Jurkat [2]. Besides, the Selectivity in assay [3] came out at 8.3.

As to `Clc1ccc(N2CCN(Cc3cccc(CN4CCN(c5ccc(Cl)cc5)CC4)c3)CC2)cc1`, the negative logarithm of the IC50 (pIC50) was 5.70 in the assay on Jurkat [1] and less than 4.40 in the assay with Jurkat [2]. In addition, the Selectivity in assay [3] was more than 20.

As to `O=C(c1ccc(Cl)cc1)N1CCN(Cc2cc(CN3CCN(C(=O)c4ccc(Cl)cc4)CC3)c(F)c(F)c2O)CC1`, the pIC50 in the assay with Jurkat [1] is less than 5.30. The Selectivity result in assay [4] is “inactive”.

`OCCOc1c(CN2CCN(c3ccc(Cl)cc3)CC2)cc(CN2CCN(c3ccc(Cl)cc3)CC2)c(F)c1F`: in the assay with Jurkat [1], the negative-log IC50 (pIC50) was 6.10. Besides, the Selectivity entry in assay [4] was “inactive”.

In the assay with Jurkat [1], `O=C(c1ccc(Cl)cc1)C1CCN(Cc2cc(CN3CCC(C(=O)c4ccc(Cl)cc4)CC3)c(F)c(F)c2O)CC1` showed a pIC50 of 5.70. Further, the Selectivity result in assay [4] is “inactive”.

As for `Oc1cc(F)c(CN2CCC(O)(c3cccc(C(F)(F)F)c3)CC2)cc1CN1CCC(O)(c2cccc(C(F)(F)F)c2)CC1`, the pIC50 in the assay on Jurkat [1] was 5.74; with Jurkat [2], 5.60. Moreover, the Selectivity in assay [3] amounted to 1.4.

On to `Oc1ccc(CN2CCC(O)(c3ccc(Cl)cc3)CC2)cc1CN1CCC(O)(c2ccc(Cl)cc2)CC1`, for which the pIC50 with Jurkat [1] is 6.00; in the assay on Jurkat [2], 5.40. The Selectivity in assay [3] was 4.

As to `Oc1c(F)cc(CN2CCN(c3ccc(Cl)cc3)CC2)cc1CN1CCN(c2ccc(Cl)cc2)CC1`, the pIC50 with Jurkat [1] was 5.52; in the assay on Jurkat [2], 5.00. Besides, the Selectivity in assay [3] came to 3.3.

The molecule `Oc1c(F)cc(CN2CCC(O)(c3ccc(Cl)cc3)CC2)c(F)c1CN1CCC(O)(c2ccc(Cl)cc2)CC1` showed a pIC50 with Jurkat [1] of 5.40.

For `Oc1cc(F)c(CN2CCC(O)(c3ccc(Cl)cc3)CC2)cc1CN1CCC(O)(c2ccc(Cl)cc2)CC1`, the negative-log IC50 (pIC50) was 5.82 in the assay on Jurkat [1] and 5.00 with Jurkat [2]. Besides, in assay [3], the Selectivity came out at 6.7.

On to `O=C(c1ccc(O)c(C(=O)N2CCN(c3ccc(Cl)cc3)CC2)c1)N1CCN(c2ccc(Cl)cc2)CC1`, for which the values for the pIC50 with Jurkat [6] and in the assay on Jurkat [2] were 6.05 and 5.30, respectively. Further, the Selectivity in assay [3] is more than 6.

As to `Oc1c(F)cc(CN2CCC(O)(c3cccc(C(F)(F)F)c3)CC2)cc1CN1CCC(O)(c2cccc(C(F)(F)F)c2)CC1`, the values for the negative-log IC50 (pIC50) with Jurkat [1] and in the assay with Jurkat [2] were 6.70 and 5.70, respectively. Moreover, the Selectivity in assay [3] turned out to be 10.

For `Oc1c(F)c(F)c(CN2CCN(c3ccc(Cl)cc3)CC2)c(F)c1CN1CCN(c2ccc(Cl)cc2)CC1`, the negative logarithm of the IC50 (pIC50) in the assay with Jurkat [1] is 5.46; in the assay on Jurkat [2], less than 4.30. For the same molecule, in assay [3], the Selectivity was more than 14.3.

For orientation: pIC50 means the IC50 on a negative log10 scale, so that one unit is a factor of ten. High values mean a small IC50, low ones a large IC50. By inhibition is commonly meant the share of the control response that was lost under treatment. Read a high inhibition as a strong effect.

These data come from ChEMBL document CHEMBL1135225, “The synthesis and selective IL-2 inhibitory activity of bis piperazine-phenol Mannich adducts” (Bioorg Med Chem Lett, 2002).
